In PMC5218480 (PLoS ONE, 2017):

System: MV-4-11 cells
Assay: Gene expression microarray analysis (Affymetrix PrimeView) and GSEA
Assay type: cell-based, human
Design: RFU PODN (11730768_x_at) / Fold change /veh PODN (11730768_x_at) / RFU LINC00158 (11744669_a_at) / Fold change /veh LINC00158 (11744669_a_at) / RFU DUSP10 (11751237_a_at) / Fold change /veh DUSP10 (11751237_a_at) / RFU ID3 (11757404_x_at) / Fold change /veh ID3 (11757404_x_at) / RFU PLEKHG5 (11737974_s_at) / Fold change /veh PLEKHG5 (11737974_s_at) / RFU LRRC4B (11730491_at) / Fold change /veh LRRC4B (11730491_at) / RFU GIMAP4 (11747438_a_at) / Fold change /veh GIMAP4 (11747438_a_at) / RFU KRT8 (11758183_x_at) / Fold change /veh KRT8 (11758183_x_at) / RFU CNN1 (11734310_a_at) / Fold change /veh CNN1 (11734310_a_at) / RFU VPS37D (11726825_at) / Fold change /veh VPS37D (11726825_at) / RFU C10orf10 (11716522_x_at) / Fold change /veh C10orf10 (11716522_x_at) / RFU KIR2DL2 /// KIR2DL4 /// KIR2DL5A /// KIR2DL5B /// KIR2DS1 /// KIR2DS2 /// KIR2DS3 /// KIR2DS4 /// KIR3DL3 /// KIR3DL3 /// KIR3DS1 (11738374_at) / Fold change /veh KIR2DL2 /// KIR2DL4 /// KIR2DL5A /// KIR2DL5B /// KIR2DS1 /// KIR2DS2 /// KIR2DS3 /// KIR2DS4 /// KIR3DL3 /// KIR3DL3 /// KIR3DS1 (11738374_at) / RFU C1QL1 (11718748_at) / Fold change /veh C1QL1 (11718748_at) / RFU TMPRSS4 (11747572_a_at) / Fold change /veh TMPRSS4 (11747572_a_at) / RFU HAMP (11756126_x_at) / Fold change /veh HAMP (11756126_x_at) / RFU RNFT2 (11725882_a_at) / Fold change /veh RNFT2 (11725882_a_at) / RFU NR4A2 (11747474_a_at) / Fold change /veh NR4A2 (11747474_a_at) / RFU ABCC12 (11746883_a_at) / Fold change /veh ABCC12 (11746883_a_at) / RFU TMEM136 (11760407_x_at) / Fold change /veh TMEM136 (11760407_x_at) / RFU CLDN22 /// WWC2 (11732394_at) / Fold change /veh CLDN22 /// WWC2 (11732394_at) / RFU HLA-DPB1 (11760878_x_at) / Fold change /veh HLA-DPB1 (11760878_x_at) / RFU SPINT1 (11716480_a_at) / Fold change /veh SPINT1 (11716480_a_at) / RFU GAP43 (11754022_s_at) / Fold change /veh GAP43 (11754022_s_at) / RFU A4GNT (11735810_at) / Fold change /veh A4GNT (11735810_at) / RFU PRB3 (11715151_x_at) / Fold change /veh PRB3 (11715151_x_at) / RFU TUBB4B (11761932_at) / Fold change /veh TUBB4B (11761932_at) / RFU CAPN14 (11732068_a_at) / Fold change /veh CAPN14 (11732068_a_at) / RFU TMCC2 (11721928_a_at) / Fold change /veh TMCC2 (11721928_a_at) / RFU IRGQ (11745062_a_at) / Fold change /veh IRGQ (11745062_a_at) / RFU FAM174B (11720279_a_at) / Fold change /veh FAM174B (11720279_a_at) / RFU TMPRSS4 (11748680_a_at) / Fold change /veh TMPRSS4 (11748680_a_at) / RFU FAM212B (11763350_a_at) / Fold change /veh FAM212B (11763350_a_at) / RFU PLEKHG5 (11743358_a_at) / Fold change /veh PLEKHG5 (11743358_a_at) / RFU ZSCAN30 (11745921_a_at) / Fold change /veh ZSCAN30 (11745921_a_at) / RFU CMKLR1 (11741424_a_at) / Fold change /veh CMKLR1 (11741424_a_at) / RFU LOC101060620 /// MAPK8IP1 (11723275_at) / Fold change /veh LOC101060620 /// MAPK8IP1 (11723275_at) / RFU SPTSSB (11747773_x_at) / Fold change /veh SPTSSB (11747773_x_at) / RFU PRSS12 (11739890_at) / Fold change /veh PRSS12 (11739890_at) / RFU BIN1 (11741810_x_at) / Fold change /veh BIN1 (11741810_x_at) / RFU WNT11 (11732464_a_at) / Fold change /veh WNT11 (11732464_a_at) / RFU C10orf10 (11716521_a_at) / Fold change /veh C10orf10 (11716521_a_at) / RFU C5orf56 (11738089_at) / Fold change /veh C5orf56 (11738089_at) / RFU CYB561 (11721691_x_at) / Fold change /veh CYB561 (11721691_x_at) / RFU ANKRD19P (11752326_a_at) / Fold change /veh ANKRD19P (11752326_a_at) / RFU OR2T12 /// OR2T33 /// OR2T8 (11738714_s_at) / Fold change /veh OR2T12 /// OR2T33 /// OR2T8 (11738714_s_at) / RFU VCAN (11748164_a_at) / Fold change /veh VCAN (11748164_a_at) / RFU JSRP1 (11732532_at) / Fold change /veh JSRP1 (11732532_at) / RFU KRTAP10-11 (11738290_x_at) / Fold change /veh KRTAP10-11 (11738290_x_at) / RFU MYO3A (11730013_a_at) / Fold change /veh MYO3A (11730013_a_at) / RFU EBF3 (11725865_a_at) / Fold change /veh EBF3 (11725865_a_at) / RFU CAMK2N1 (11719241_x_at) / Fold change /veh CAMK2N1 (11719241_x_at) / RFU C5orf56 (11738088_a_at) / Fold change /veh C5orf56 (11738088_a_at) / RFU OLFML3 (11715873_a_at) / Fold change /veh OLFML3 (11715873_a_at) / RFU LOC100653217 /// NTM (11731650_a_at) / Fold change /veh LOC100653217 /// NTM (11731650_a_at) / RFU MAPK11 (11762145_a_at) / Fold change /veh MAPK11 (11762145_a_at) / RFU FIZ1 (11724087_x_at) / Fold change /veh FIZ1 (11724087_x_at) / RFU OASL (11726364_x_at) / Fold change /veh OASL (11726364_x_at) / RFU SOX15 (11748057_x_at) / Fold change /veh SOX15 (11748057_x_at) / RFU CD79A (11719716_a_at) / Fold change /veh CD79A (11719716_a_at) / RFU HIST1H1D (11736915_at) / Fold change /veh HIST1H1D (11736915_at) / RFU CASKIN2 (11723855_a_at) / Fold change /veh CASKIN2 (11723855_a_at) / RFU LOC730098 (11760151_x_at) / Fold change /veh LOC730098 (11760151_x_at) / RFU OR4N2 (11742367_at) / Fold change /veh OR4N2 (11742367_at) / RFU PRRT2 (11749266_a_at) / Fold change /veh PRRT2 (11749266_a_at) / RFU SNX32 (11753110_a_at) / Fold change /veh SNX32 (11753110_a_at) / RFU CDHR5 (11726645_a_at) / Fold change /veh CDHR5 (11726645_a_at) / RFU RCAN1 (11760418_a_at) / Fold change /veh RCAN1 (11760418_a_at) / RFU FAM167A (11723789_a_at) / Fold change /veh FAM167A (11723789_a_at) / RFU FAM26E (11764081_at) / Fold change /veh FAM26E (11764081_at) / RFU ISYNA1 (11749810_s_at) / Fold change /veh ISYNA1 (11749810_s_at) / RFU ACY1 (11761880_at) / Fold change /veh ACY1 (11761880_at) / RFU 11764098_at / Fold change /veh 11764098_at / RFU SAMD14 (11745864_x_at) / Fold change /veh SAMD14 (11745864_x_at) / RFU NPB (11741838_a_at) / Fold change /veh NPB (11741838_a_at) / RFU TMPRSS6 (11731388_a_at) / Fold change /veh TMPRSS6 (11731388_a_at) / RFU KRTAP10-2 (11738614_at) / Fold change /veh KRTAP10-2 (11738614_at) / RFU ARHGAP8 /// PRR5-ARHGAP8 (11727945_x_at) / Fold change /veh ARHGAP8 /// PRR5-ARHGAP8 (11727945_x_at) / RFU KRTAP5-7 /// NADSYN1 (11734609_at) / Fold change /veh KRTAP5-7 /// NADSYN1 (11734609_at) / RFU RASL12 (11751679_a_at) / Fold change /veh RASL12 (11751679_a_at) / RFU CDKN2B (11736163_a_at) / Fold change /veh CDKN2B (11736163_a_at) / RFU PRF1 (11729649_at) / Fold change /veh PRF1 (11729649_at) / RFU, ZNF638 /// ZNF638-IT1 / Fold change vs veh, ZNF638 /// ZNF638-IT1 / RFU, PANK3 / Fold change vs veh, PANK3 / RFU, SH3YL1 / Fold change vs veh, SH3YL1 / RFU, ZEB2 / Fold change vs veh, ZEB2 / RFU, NRIP1 / Fold change vs veh, NRIP1 / RFU, PTTG1IP / Fold change vs veh, PTTG1IP / RFU, CAPN2 / Fold change vs veh, CAPN2 / RFU, MED14 / Fold change vs veh, MED14 / RFU, SNORA58 / Fold change vs veh, SNORA58 / RFU, C1orf63 / Fold change vs veh, C1orf63 / RFU, LRRFIP1 / Fold change vs veh, LRRFIP1 / RFU, NDUFAF7 / Fold change vs veh, NDUFAF7 / RFU, SLC12A2 / Fold change vs veh, SLC12A2 / RFU, IBTK / Fold change vs veh, IBTK / RFU, ESF1 / Fold change vs veh, ESF1 / Fold change vs veh, TMEM50B / RFU, TAOK1 / Fold change vs veh, TAOK1 / RFU, ACBD3 / Fold change vs veh, ACBD3 / RFU, TMA16 / Fold change vs veh, TMA16 / RFU, RWDD3 / Fold change vs veh, RWDD3 / RFU, BCAT1 / Fold change vs veh, BCAT1 / RFU, EDEM3 / Fold change vs veh, EDEM3 / RFU, TMEM33 / Fold change vs veh, TMEM33 / RFU, WDR75 / Fold change vs veh, WDR75 / RFU, AHCTF1 / Fold change vs veh, AHCTF1 / RFU, TFRC / Fold change vs veh, TFRC / RFU, ZDHHC17 / Fold change vs veh, ZDHHC17 / RFU, NOM1 / Fold change vs veh, NOM1 / RFU, ARL8B / Fold change vs veh, ARL8B / RFU, ZBTB11 / Fold change vs veh, ZBTB11 / RFU, TAMM41 / Fold change vs veh, TAMM41 / RFU, KIAA1704 /// LOC100996395 / Fold change vs veh, KIAA1704 /// LOC100996395 / RFU, ING1 / Fold change vs veh, ING1 / RFU, TRMT61B / Fold change vs veh, TRMT61B / RFU, FUBP3 / Fold change vs veh, FUBP3 / RFU, TP53 / Fold change vs veh, TP53 / RFU, TNKS2 / Fold change vs veh, TNKS2 / RFU, ZFP14 / Fold change vs veh, ZFP14 / RFU, ACTR2 / Fold change vs veh, ACTR2 / RFU, PPP3R1 / Fold change vs veh, PPP3R1 / RFU, PIK3R1 / Fold change vs veh, PIK3R1 / RFU, HNRNPA1 / Fold change vs veh, HNRNPA1 / RFU, RNF170 / Fold change vs veh, RNF170 / RFU, ZNF28 / Fold change vs veh, ZNF28 / RFU, RNGTT / Fold change vs veh, RNGTT / RFU, OGT / Fold change vs veh, OGT / RFU, BRD1 / Fold change vs veh, BRD1 / RFU, MARS / Fold change vs veh, MARS / RFU, ZNF655 / Fold change vs veh, ZNF655 / RFU, FAHD1 / Fold change vs veh, FAHD1 / RFU, BDP1 / Fold change vs veh, BDP1 / RFU, LRRCC1 / Fold change vs veh, LRRCC1 / RFU, ARID1A / Fold change vs veh, ARID1A / RFU, ZNF146 / Fold change vs veh, ZNF146 / RFU, ZNF330 / Fold change vs veh, ZNF330 / RFU, GPN3 / Fold change vs veh, GPN3 / RFU, C9orf123 / Fold change vs veh, C9orf123 / RFU, N4BP2L2 / Fold change vs veh, N4BP2L2 / RFU, ARFIP1 / Fold change vs veh, ARFIP1 / RFU, FAM179B / Fold change vs veh, FAM179B / RFU, BCL10 / Fold change vs veh, BCL10 / RFU, UHRF1BP1L / Fold change vs veh, UHRF1BP1L / RFU, BET1 / Fold change vs veh, BET1 / RFU, CNOT2 / Fold change vs veh, CNOT2 / RFU, ZNF268 / Fold change vs veh, ZNF268 / Fold change vs veh, ZNF507 / RFU, DGCR2 / Fold change vs veh, DGCR2 / RFU, WDSUB1 / Fold change vs veh, WDSUB1 / Fold change vs veh, HSP90B1 /// MIR3652 / RFU, ADSS / Fold change vs veh, ADSS / RFU, GK / Fold change vs veh, GK / RFU, ZNF148 / Fold change vs veh, ZNF148 / RFU, TAF9 / Fold change vs veh, TAF9 / RFU, SLC1A5 / Fold change vs veh, SLC1A5 / RFU, SLMO2 / Fold change vs veh, SLMO2 / RFU, ABCC4 / Fold change vs veh, ABCC4 / RFU, LOC101060439 /// RAP1B / Fold change vs veh, LOC101060439 /// RAP1B / RFU, RFX7 / Fold change vs veh, RFX7 / RFU, GTPBP10 / Fold change vs veh, GTPBP10 / RFU, CNEP1R1 / Fold change vs veh, CNEP1R1 / RFU, BIVM-ERCC5 /// ERCC5 / Fold change vs veh, BIVM-ERCC5 /// ERCC5 / RFU, ILF3 / Fold change vs veh, ILF3 / RFU 11762660_at / Fold change /veh 11762660_at / RFU VCAN (11757783_s_at) / Fold change /veh VCAN (11757783_s_at) / RFU DDX43 (11728927_at) / Fold change /veh DDX43 (11728927_at) / RFU KRT8 (11758188_x_at) / Fold change /veh KRT8 (11758188_x_at) / RFU NKD1 (11759106_at) / Fold change /veh NKD1 (11759106_at) / RFU SRD5A1 (11742802_a_at) / Fold change /veh SRD5A1 (11742802_a_at) / RFU TPSAB1 /// TPSB2 (11721975_s_at) / Fold change /veh TPSAB1 /// TPSB2 (11721975_s_at) / RFU GSTM3 (11746129_a_at) / Fold change /veh GSTM3 (11746129_a_at) / RFU IL23R (11737362_x_at) / Fold change /veh IL23R (11737362_x_at) / RFU TMEM51 (11727254_a_at) / Fold change /veh TMEM51 (11727254_a_at) / RFU PIWIL2 (11732686_x_at) / Fold change /veh PIWIL2 (11732686_x_at) / RFU ORM1 (11744905_x_at) / Fold change /veh ORM1 (11744905_x_at) / RFU CCDC152 (11743942_at) / Fold change /veh CCDC152 (11743942_at) / RFU ECM1 (11717891_a_at) / Fold change /veh ECM1 (11717891_a_at) / RFU IL23R (11748794_a_at) / Fold change /veh IL23R (11748794_a_at) / RFU TNFAIP8L3 (11732012_x_at) / Fold change /veh TNFAIP8L3 (11732012_x_at) / RFU MBOAT4 (11741988_at) / Fold change /veh MBOAT4 (11741988_at) / RFU 11764193_at / Fold change /veh 11764193_at / RFU TMEM53 (11763286_at) / Fold change /veh TMEM53 (11763286_at) / RFU MAGEB2 (11727129_at) / Fold change /veh MAGEB2 (11727129_at) / RFU TMEM200A (11744735_a_at) / Fold change /veh TMEM200A (11744735_a_at) / RFU CCDC152 (11751479_a_at) / Fold change /veh CCDC152 (11751479_a_at) / RFU FAM211A (11726209_a_at) / Fold change /veh FAM211A (11726209_a_at) / RFU RGS16 (11746705_a_at) / Fold change /veh RGS16 (11746705_a_at) / RFU VCAN (11755009_s_at) / Fold change /veh VCAN (11755009_s_at) / RFU RHOB (11743442_s_at) / Fold change /veh RHOB (11743442_s_at) / RFU RGS16 (11720943_a_at) / Fold change /veh RGS16 (11720943_a_at) / RFU RGS16 (11720944_at) / Fold change /veh RGS16 (11720944_at) / RFU, VPS4B / Fold change vs veh, VPS4B / RFU, CREB1 / Fold change vs veh, CREB1 / RFU, DNAJC13 / Fold change vs veh, DNAJC13 / RFU, GNAQ / Fold change vs veh, GNAQ / RFU, CDK5R1 / Fold change vs veh, CDK5R1 / RFU, ZRANB3 / Fold change vs veh, ZRANB3 / RFU, CUL4A / Fold change vs veh, CUL4A / RFU, CCNY / Fold change vs veh, CCNY / RFU, UFL1 / Fold change vs veh, UFL1 / RFU, COG3 / Fold change vs veh, COG3 / RFU, DIAPH2 / Fold change vs veh, DIAPH2 / RFU, SKA2 / Fold change vs veh, SKA2 / RFU, AFF3 / Fold change vs veh, AFF3 / RFU, LMF1 / Fold change vs veh, LMF1 / RFU, IPO11 / Fold change vs veh, IPO11 / RFU, DFFB / Fold change vs veh, DFFB / RFU, FOXP1 / Fold change vs veh, FOXP1 / RFU, CARD8 / Fold change vs veh, CARD8 / RFU, STRN3 / Fold change vs veh, STRN3 / RFU, ADK / Fold change vs veh, ADK / RFU, RASSF2 / Fold change vs veh, RASSF2 / RFU, WIPF1 / Fold change vs veh, WIPF1 / RFU, LARP1B / Fold change vs veh, LARP1B / RFU, RASA1 / Fold change vs veh, RASA1 / RFU, RB1 / Fold change vs veh, RB1 / RFU, PPFIA1 / Fold change vs veh, PPFIA1 / RFU, MAT2A / Fold change vs veh, MAT2A / RFU, CCT5 / Fold change vs veh, CCT5 / RFU, WDR92 / Fold change vs veh, WDR92 / RFU, CUX1 / Fold change vs veh, CUX1 / RFU, TTC7A / Fold change vs veh, TTC7A / RFU, TMEM135 / Fold change vs veh, TMEM135 / RFU, DEPTOR / Fold change vs veh, DEPTOR / RFU, CPM / Fold change vs veh, CPM / RFU, DNAJB6 / Fold change vs veh, DNAJB6 / RFU, CACNA2D3 / Fold change vs veh, CACNA2D3 / RFU, DTX4 / Fold change vs veh, DTX4 / RFU, TFCP2 / Fold change vs veh, TFCP2 / RFU, GMCL1 /// GMCL1P1 / Fold change vs veh, GMCL1 /// GMCL1P1 / RFU, AEBP2 / Fold change vs veh, AEBP2 / RFU, SNHG1 /// SNORD22 /// SNORD25 /// SNORD26 /// SNORD27 /// SNORD28 /// SNORD29 /// SNORD31 / Fold change vs veh, SNHG1 /// SNORD22 /// SNORD25 /// SNORD26 /// SNORD27 /// SNORD28 /// SNORD29 /// SNORD31 / Fold change (Aza/veh), C12orf56 (ProbeSet 11735607_a_at) / Fold change (ACY-1035/veh), C12orf56 (ProbeSet 11735607_a_at) / Fold change (Aza/veh), FGFR1OP (ProbeSet 11751329_s_at) / Fold change (ACY-1035/veh), FGFR1OP (ProbeSet 11751329_s_at) / Fold change (Aza/veh), VPS36 (ProbeSet 11739960_a_at) / Fold change (ACY-1035/veh), VPS36 (ProbeSet 11739960_a_at) / RFU SYPL1 (11715823_x_at) / Fold change /veh SYPL1 (11715823_x_at) / RFU IGFBP7 (11715501_s_at) / Fold change /veh IGFBP7 (11715501_s_at) / RFU REEP3 (11722064_at) / Fold change /veh REEP3 (11722064_at) / RFU IGLL1 (11728026_x_at) / Fold change /veh IGLL1 (11728026_x_at): dose or concentration left out as unconfirmed
Settings: MV-4-11 cells, 48 hours

Q: For `Nc1ccc(-c2cccs2)cc1NC(=O)c1ccc2c(c1)cc(C1CC1)n2CCN1CCOCC1` [ACY-1035], which “Fold change /veh LOC101060620 /// MAPK8IP1 (11723275_at)” value is on record?
A: 0.98
